# Laboratory results published in patent US5750536A, “Tropyl 7-azaindol-3-ylcarboxyamides as antitussive agent” (priority 1993, dated 1998).
# Entries after “also recorded” stand apart in the source; their conditions may differ. Read-outs that look alike come from different tables or passages of the source.
# Assays:
# [1] = test system: cough induced by capsaicine; experiment: Antitussive effect, capsaicine aqueous solution as irritant (Table V); format: in vivo, mice; conditions: os; for short coughs average n° ± s.e. / short coughs inhib. %: single dose 100 mg/kg, mice
# Procedure: (§1) Further compound A (N-endo-8-methyl-8-azabicyclo [3,2,1] oct-3-yl)-7-azaindolyl-3-carboxamide has been tested for its antitussive effect in comparison to the closest compound belonging to the class of compounds of Japanese Kokai Tokkyo Koho JP 04 21 681, i.e., 8-methyl-8-azabicyclo [3,2,1] oct-3-yl)-1-methyl-7-azaindolyl-3-carboxamide. The compounds were administered by os at a single dose of 100 mg/kg on mice using as irritant agent capsaicine aqueous solution according to the previous mentioned technique.
# as §1, with “.vertline.3,2,1.vertline.” for “[3,2,1]”, “antitussiv” for “antitussive”, “Jpn.” for “Japanese”, “i.e. 8-methyl-8-azabicliclo .vertline.3,2,1.vertline.” for “i.e., 8-methyl-8-azabicyclo [3,2,1]”
# [2] = test system: coughing stimulus by ac. citric; experiment: Inhibition of cough induced by inhalation of citric acid; format: in vivo, guinea pigs; conditions: for ED50: Cavia porcellus, po, read-out: ID50 coughing stimulus ac. citric; for % inhibition of the coughing stimulus by ac. citric: guinea pigs, single dose 100 mg/kg
# Procedure: (§2) Besides these differences "in vitro" on the receptor behaviour great differences has been evidenced "in vivo" in the tussive stimulus inhibition provoked by inhalation of irritant citric acid as well as capsaicine aqueous solutions.
# (§3) The compounds have been tested in guinea pigs in comparison to codeine, used as standard compound, at the single dose of 100 mg/kg according to the technique of Charlier et al., (Arch. Int. Pharmacodyn., 134, 306, 1961) which has been slightly modified.
# (§4) The percent reduction evaluated in the number of short coughs after administration of the compound under examination taken in comparison to the number of short coughs observed in each of the animals to which the compound was administered, have been noted.
# (§5) For these compounds as well as for the most interesting reference compounds the dose inhibiting 50% of the short coughs (ID50) induced either by citric acid or capsaicine has been determined.
# [3] = test system: coughing stimulus by capsaicin; experiment: Inhibition of cough induced by inhalation of capsaicin; format: in vivo, guinea pigs; conditions: for ED50: Cavia porcellus, po, read-out: ID50 coughing stimulus capsaicin; for % inhibition of the coughing stimulus by capsaicin: guinea pigs, single dose 100 mg/kg
# Procedure: as §2, §3, §4, §5
# [4] = test system: coughing stimulus by 2N H2 SO4; experiment: Inhibition of cough induced by 2N H2SO4; format: in vivo, guinea pigs; conditions: Cavia porcellus, po, read-out: ID50 coughing stimulus 2N H2 SO4
# [5] = test system: sleeping time induced by barbiturates; experiment: Increase of sleeping time induced by barbiturates; format: in vivo, mice; conditions: for sleeping time increase: mice, barbiturate-induced sleep
# Description: For each of the compounds under examination it has been also tested the effect on the increase of the sleeping time induced by barbiturates. […]
# 5-HT1 = experiment: Binding test 5-HT1; conditions: at 3.6 10^-5 M
# Description: Compounds A and Compounds B of the present invention, which are examples of endo-tropyl and quinuclidylamide of 7-azaindolyl-3-carboxylic acid respectively have been studied "in vitro" for their interaction with the 5-HT1, 5-HT2 and 5-HT3 receptors.
# Binding Test: 5-HT1 5-HT2
# % of inhibition at 3.6 10^-5 M
# α1 = experiment: Displacement of selective ligand from α1 receptor; format: binding; conditions: 10^-5 M; 10 µM
# Description: (§6) The interaction of Compounds A and B with other receptors (α1, α2, benzodiazepine (o bzd), GABA A, δ) in comparison to the typical 5-HT3 antagonist Ondastron and BRL 24682 has been studied and for each case the displacement % of the single selective ligand from the corresponding receptor at concentration 10^-5 M of the compounds under examination, has been evaluated.
# α2 = experiment: Displacement of selective ligand from α2 receptor; format: binding; conditions: 10^-5 M; 10 µM
# Description: as §6
# GABA A = experiment: Displacement of selective ligand from GABA A receptor; format: binding; conditions: for Dispacement percentage Gaba A: 10^-5 M, 10 µM
# σ = experiment: Displacement of selective ligand from σ receptor (δ in text); format: binding; conditions: 10^-5 M; 10 µM
# [6] = test system: extra vasation by capsaicine; experiment: Protection from capsaicine extravasation (Evans bleu); format: in vivo
# Description: It is assumed that Capsaicine releases substance P from the peripheral nerve endings of the sensitive fibers C and determines the necrosis of the same. It is known that capsaicine administration provokes the formation of an exudate (extra vasation by capsaicine) which can be evaluated by concomitant Evans bleu administration.
# 5-HT2 = experiment: Binding test 5-HT2; conditions: at 3.6 10^-5 M
# 5-HT3 = biological target: T1, 5-HT3 (Homo sapiens, UniProt P46098); experiment: Binding test 5-HT3
# T1 sequence (P46098 24-478): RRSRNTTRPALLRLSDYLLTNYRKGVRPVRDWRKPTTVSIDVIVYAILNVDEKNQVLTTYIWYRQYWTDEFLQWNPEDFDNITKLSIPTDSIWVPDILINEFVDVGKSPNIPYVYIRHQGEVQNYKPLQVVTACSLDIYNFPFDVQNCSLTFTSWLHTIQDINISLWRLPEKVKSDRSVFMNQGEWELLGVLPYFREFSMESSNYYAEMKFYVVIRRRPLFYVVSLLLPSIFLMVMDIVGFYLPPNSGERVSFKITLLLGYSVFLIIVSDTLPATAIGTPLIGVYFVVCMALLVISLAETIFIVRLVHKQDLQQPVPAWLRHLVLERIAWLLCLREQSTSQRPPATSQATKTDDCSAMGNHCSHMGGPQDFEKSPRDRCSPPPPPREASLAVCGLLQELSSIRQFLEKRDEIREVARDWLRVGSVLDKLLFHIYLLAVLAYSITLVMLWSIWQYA
# Acute oral toxicity = conditions: mouse, in vivo, mice
# Procedure: The compounds of the invention may be administered by oral, sublingual, endovenous, subcutaneous, intramuscular, rectal route and by inhalation. The preferred doses vary from about 0.05 to about 15 mg/kg/die, depending on the conditions, weight, age of the patient and on the administration route. Higher dosages of the compounds of the invention, even for a prolonged period of time, have no contraindication because of their very low toxicity.
# [7] = test system: benzodiazepine (bdz) receptor; experiment: Displacement of selective ligand from benzodiazepine receptor; format: binding
# Description: as §6
# [8] = test system: coughing stimulus by capsaicin; experiment: Inhibition of cough induced by inhalation of capsaicin; format: in vivo; conditions: guinea pigs
smiles,measurement,setting,value
"CN1C2CCC1CC(NC(=O)c1cn(C)c3ncccc13)C2 (stereo not shown) [8-methyl-8-azabicyclo [3,2,1] oct-3-yl)-1-methyl-7-azaindolyl-3-carboxamide, reference compound]",short coughs average n° ± s.e.,[1],6.5 ± 0.7
same,short coughs inhib. %,[1],6%
OC[C@@H](O)CN1CCN(c2ccccc2)CC1 [Levodropropyzina],ED50,"[2]; os, 95% confidence",151 mg/kg
same,ED50,"[3]; os, 95% confidence",145 mg/kg
same,ED50,"[4]; os, 95% confidence",265 mg/kg
"COc1ccc2c3c1O[C@H]1[C@@H](O)C=C[C@H]4[C@@H](C2)N(C)CC[C@@]341 [Codeine, reference compound]",ED50,[2],65 mg/kg
same,% inhibition of the coughing stimulus by ac. citric,[2],63.2%
same,ED50,[3],74 mg/kg
same,% inhibition of the coughing stimulus by capsaicin,[3],58.4%
same,sleeping time increase,"[5]; oral, single dose 100 mg/kg",+106.4
same,ED50,[4],102 mg/kg
"Cc1nccn1CC1CCc2c(c3ccccc3n2C)C1=O (racemic) [Ondasetron, reference compound]",% of inhibition 5-HT1,5-HT1,7.6%
same,Dispacement percentage α1,α1,72%
same,Dispacement percentage α2,α2,30%
same,interaction towards GABA A receptor (in words),GABA A,aspecific
same,Dispacement percentage Gaba A,GABA A,38%
same,Dispacement percentage σ,σ,45%
same,ED50,"[2]; os, 95% confidence",209 mg/kg
same,% inhibition of the coughing stimulus by ac. citric,[2],30.5%
same,ED50,"[3]; os, 95% confidence",97 mg/kg
same,% inhibition of the coughing stimulus by capsaicin,[3],50.5%
same,sleeping time increase,[5]; at the dose of 10 mg/kg,-8
same,protection from capsaicine extravasation (in words),[6]; 10 mg/kg i.p.,Solely Compound A and not Ondasetron has been found to give a 42% protection
"CN1[C@@H]2CC[C@H]1C[C@@H](NC(=O)c1c[nH]c3ncccc13)C2 [Compound A, N-(endo-8-methyl-8-azabicyclo[3.2.1]oct-3-yl)-7-azaindolyl-3-carboxamide]",% of inhibition 5-HT1,5-HT1,0.0%
same,% of inhibition 5-HT2,5-HT2,8.6%
same,IC50,5-HT3,3000 nM
same,interaction with 5-HT3 receptors (in words),5-HT3,very weak interaction with 5-HT3 receptors
same,interaction with 5-HT3 receptors relative to Compound B (in words),5-HT3; vs Compound B,logarithmically lower than that of Compound B
same,interaction with 5-HT3 receptors relative to Ondasetron (times lower),5-HT3; vs Ondasetron,"1,000 times"
same,Dispacement percentage α1,α1,13%
same,interaction towards GABA A receptor (in words),GABA A,"unusual ability of a double interaction, apparently selective, towards GABA A and δ receptors"
same,Dispacement percentage Gaba A,GABA A,83%
same,Dispacement percentage σ,σ,70%
same,ED50,[2],57 mg/kg
same,"antitussive effect, citric acid (in words)","[2]; guinea pig, in vivo",depends on the dose administered; also recorded: at least equiactive as codeine
same,% inhibition of the coughing stimulus by ac. citric,[2],61.7%
same,ED50,[3],51 mg/kg
same,"antitussive effect, capsaicin (in words)","[3]; guinea pig, in vivo",depends on the dose administered; also recorded: at least equiactive as codeine
same,% inhibition of the coughing stimulus by capsaicin,[3],76.30%
same,sleeping time increase,"[5]; oral, single dose 100 mg/kg",-28.9
same,increase of the sleeping time induced by barbiturates (in words),"[5]; mouse, in vivo",does not show any increase of the sleeping time induced by barbiturates
same,protection from capsaicine extravasation,"[6]; 10 mg/kg intraperitoneal, vs non-treated animals",42%
same,"antitussive effect, Table V (in words)",[1]; 100 mg/kg,effective as an antitussive compound; also recorded: effectiveness of compound A as antitussive compound
same,short coughs average n° ± s.e.,[1],1.8 ± 0.5
same,short coughs inhib. %,[1],75%
same,LD50,Acute oral toxicity,1000 mg/kg
"COc1cc(N)c(Cl)cc1C(=O)N[C@H]1C[C@H]2CC[C@@H](C1)N2C [BRL 24682, N-(endo-8-methyl-8-azabicyclo-[3.2.1]oct-3-yl)-2-methoxy-4-amino-5-chlorobenzamide, reference compound]",Dispacement percentage α1,α1,28%
same,Dispacement percentage α2,α2,16%
same,interaction with benzodiazepine receptor (in words),[7],high interaction with the benzodiazepine and GABA A receptors
same,Dispacement percentage bdz,"[7]; 10^-5 M, 10 µM",98%
same,interaction towards GABA A receptor (in words),GABA A,high interaction with the benzodiazepine and GABA A receptors
same,Dispacement percentage Gaba A,GABA A,89%
same,Dispacement percentage σ,σ,0%
same,% inhibition of the coughing stimulus by ac. citric,[2],44.1%
same,sleeping time increase,"[5]; oral, single dose 100 mg/kg",+34.8
COc1ccccc1CN[C@H]1C2CCN(CC2)[C@H]1C(c1ccccc1)c1ccccc1 (relative stereo) [CP 96 345],"short cough inhibition, capsaicin",[8]; 10 mg/kg intraperitoneal,26%
same,"short cough inhibition, capsaicin",[8]; 40 mg/kg intraperitoneal,42%
"O=C(NC1CN2CCC1CC2)c1c[nH]c2ncccc12 (stereo not shown) [Compound B, N-(1-azabicyclo[2.2.2]oct-3-yl)-7-azaindolyl-3-carboxamide]",% of inhibition 5-HT1,5-HT1,37.0%
same,% of inhibition 5-HT2,5-HT2,3.9%
same,IC50,5-HT3,300 nM
same,Dispacement percentage α1,α1,7%
same,interaction towards GABA A receptor (in words),GABA A,definitely weak or absent
same,Dispacement percentage Gaba A,GABA A,6.7%
same,Dispacement percentage σ,σ,26%
same,% inhibition of the coughing stimulus by ac. citric,[2],46.0%
same,% inhibition of the coughing stimulus by capsaicin,[3],21.0%
same,sleeping time increase,"[5]; oral, single dose 100 mg/kg",-7
